Source: patent US4626535A, “Cephalosporins” (Bayer Aktiengesellschaft, priority 1983, dated 1986)
Converted amounts (≈) assume the structure as drawn.

What was measured:
Assay in all cases: in vitro MIC comparison in Isosensitest agar
Assay type in all cases: cell-based
[1] = system: Enterobacter Cloacae 56US; details: CLOACAE56US
Text: (§1) The compound of Example 21 was compared in vitro with Cefotaxim (MIC-comparison in Isosensitest agar): […]

[2] = system: Psdm. 7035; details: Pseudomonas
Text: as §1

[3] = system: Psdm. Walter; details: Pseudomonas
Text: as §1

[4] = system: Staph. 133; details: Staphylococcus
Text: as §1

[5] = system: Staph. 1756; details: Staphylococcus
Text: as §1

[6] = system: Staph. 25470; details: Staphylococcus
Text: as §1

[7] = system: Staph. E; details: Staphylococcus
Text: as §1

| Compound | MIC [1] [µg/mL] | MIC [2] [µg/mL] | MIC [3] [µg/mL] | MIC [4] [µg/mL] | MIC [5] [µg/mL] | MIC [6] [µg/mL] | MIC [7] [µg/mL] |
| --- | --- | --- | --- | --- | --- | --- | --- |
| CO/N=C(\C(=O)N[C@@H]1C(=O)N2C(C(=O)O)=C(COC(C)=O)CS[C@H]12)c1csc(N)n1 [Cefotaxim] | > 128 | 16 (≈ 35.1 µM) | 16 (≈ 35.1 µM) | 1 (≈ 2.2 µM) | 128 (≈ 281 µM) | > 128 | 0.5 (≈ 1.1 µM) |
| C/C=C(\C(=O)NC1C(=O)N2C(C(=O)[O-])=C(C[n+]3ccccc3)CSC12)c1nsc(N)n1 (centres unmarked) [Example 21, 7-(1-(5-Amino-1,2,4-thiadiazol-3-yl)-1(Z)-propenecarboxamido)-3-pyridiniummethyl-3-cephem-4-carboxylate] | 64 (≈ 140 µM) | 8 (≈ 17.4 µM) | 8 to 16 (≈ 17.4 to 34.9 µM) | 0.5 (≈ 1.09 µM) | 8 (≈ 17.4 µM) | 8 (≈ 17.4 µM) | 0.125 (≈ 0.273 µM) |
